The values below come from patent US12527884B2, “Use of cyclodextrins as a radiostabilizer” (GE Healthcare Limited, priority 2019, dated 2026).

Series [1] in a line: Aqueous solubility of flurpiridaz with HPbCD. It is filed as physicochemical.
Series [2] in a line: Radiochemical purity (RCP) and [18F]fluoride of formulated [18F]flurpiridaz during storage (radio TLC or HPLC). The series is classed as physicochemical. As to the method:
Radiochemical purity (RCP) is determined using radio TLC or HPLC and can be defined as the ratio of the (radio-labelled) drug substance peak to the total (radio-labelled) peaks in the chromatogram. If one manufactures a radiopharmaceutical with high radioactive concentration (RAC), the drop in RCP during storage is likely to be higher than at lower RAC due to more radiolysis. High radioactivity results in the drug substance destroying itself (i.e. radiolysis). The most efficient stabilizer can be identified by preparing different formulations of radiopharmaceuticals at similar RAC and comparing the drop in RCP over time, typically 8-10 hours for ^18F compounds.
The first 45 mL product vial was composed of water (42 mL), ethanol (3 mL), calcium disodium edetate (0.25 mg/mL), ascorbic acid (50 mg/mL) and sodium hydroxide (7.5 mg/mL). […]

In the case of `CC(C)(C)n1ncc(OCc2ccc(COCCF)cc2)c(Cl)c1=O` [[^18F]flurpiridaz, flurpiridaz], the aqueous solubility entry in series [1] is on record as “improves”. Besides, in series [2] (30 mg/mL ascorbic acid and 40 mg/mL HPbCD vs 50 mg/mL ascorbic acid without HPbCD), the radiostability entry was “equal or better”. Besides, the “change in RCP over 4 to 10 h (FIG. 2)” value in series [2] (30 to 50 mg/mL ascorbic acid (pH ~6), with or without 40-47 mg/mL HPbCD, ca. 7% (v/v) ethanol, 0-21% (v/v) oxygen headspace) is on record as “reduction”.
